From patent US10941157B2, “Pesticidal compositions and uses thereof” (Gilead Apollo, LLC, priority 2015, dated 2021)
Converted amounts (≈) assume the structure as drawn. Where two headings read alike, the source gives them in different places.

How the values were obtained:
[1] = tested on: Mycosphaerella graminicola (synthetic Septoria tritici); experiment: Foliar protection test for wheat septoria leaf blotch control; type: in vivo; details: foliar spray on Triticum aestivum cv. WinterHawk, inoculated 1 hour after treatment, evaluated 16 days later
Diplodia maydis (Dm) = experiment: In vitro pathogen growth inhibition assay, Dm; type: cell-based; details: Stenocarpella maydis, 48 h
Procedure, shortened: (§1)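 Value reported is the compound concentration reaching ≥90% growth inhibition, from OD readings at 24 and 48 h after blank subtraction, confirmed visually. Inoculum was spores diluted in 17% V8 medium, except Rs, using 1.5 mm mycelial plugs in ¼ PDB; actual compound concentration corrected via OD600.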

Rhizoctonia solani (Rs) = experiment: In vitro pathogen growth inhibition assay, Rs (mycelial plugs); type: cell-based; details: Rhizoctonia solani, 48 h, mycelial plugs
Procedure, shortened: as §1

[2] = tested on: Fusarium virguliforme (Fv); experiment: In vitro pathogen growth inhibition assay, Fv; type: cell-based
Procedure, shortened: as §1

Botrtyis cinerea (Bc) = experiment: In vitro pathogen growth inhibition assay, Bc; type: cell-based; details: 48 h
Procedure, shortened: (§2)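 Spores in 17% V8 liquid medium, or 1.5 mm Rs mycelial plugs in ¼ PDB, incubated with compound; final concentration checked by OD600 for precipitation. OD readings at 24 and 48 h, blank-subtracted, plus visual ratings; value is concentration giving ≥90% growth inhibition.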

[3] = tested on: Phytophthora capsici (Pc); experiment: In vitro pathogen growth inhibition assay, Pc; type: cell-based; details: 48 h
Procedure, shortened: as §1

Septoria tritici (St) = experiment: In vitro pathogen growth inhibition assay, St; type: cell-based; details: Zymoseptoria tritici, 48 h
Procedure, shortened: as §2

[4] = tested on: Collectotrichum graminicola (Cg); experiment: In vitro pathogen growth inhibition assay, Cg; type: cell-based; details: 48 h
Procedure, shortened: as §2

[5] = tested on: Blumeria graminis f. sp. hordei; experiment: Foliar protection test for barley powdery mildew control; type: in vivo; details: foliar spray on Hordeum vulgare cv. Perry, inoculated 24 hours after treatment, evaluated 7 days later
Procedure: Plants (Hordeum vulgare cv. Perry) were grown for 6 days in 2-inch square pots containing Metromix 200 medium amended with fertilizer. […] After inoculation with the pathogen of Blumeria graminis f. sp. hordei, plants were kept at conditions of 20 to 22° C., 70% relative humidity, and 200 uM of light to facilitate infection and disease development. […] An atomizer was used for applying the solution onto both sides of the leaves until thoroughly wetted. […] At 24 hours after treatment, the plants were moved to a cooler chamber and inoculated by shaking well-colonized, untreated stock plants above the treated plants. This allowed producing a settling cloud of spores and resulting in uniform infection. Efficacy was evaluated in 7 days later by examining leaves for colonization and growth of mildew. Table 4 lists the results of barley powdery mildew control at a compound concentration of 10 ppm or lower.

Phakopsora pachyrhizi = experiment: Foliar protection test for Asian soybean rust control; type: in vivo; details: foliar application to soybean (Glycine max AG4832), percent disease area evaluated 14 days later
Fusarium graminearum = type: in vivo; details: spray on flowering Triticum aestivum cv. Samson, inoculated 24 hours after treatment, evaluated 14 days later
[6] = tested on: Fusarium moniliforme (Fm); experiment: In vitro pathogen growth inhibition assay, Fm; type: cell-based; details: Fusarium verticillioides
Procedure, shortened: as §2

Sphaerotheca fuliginea = experiment: Foliar protection for cucumber powdery mildew control; type: in vivo; details: foliar spray on Cucumis sativus cv. Straight Eight, inoculated 24 hours after treatment, evaluated 7 days later
Procedure: Plants (Cucumis sativus cv. Straight Eight) were grown for 10 days in 2.5-inch square pots containing Metromix 200 medium amended with fertilizer. For propagation, plants were maintained in a growth chamber at conditions of 23 to 27° C., 16 hour light cycle, ambient humidity, and with sub-irrigation as needed. After inoculation with the pathogen of Sphaerotheca fuliginea, plants were kept at conditions of 23 to 27° C., 16 hour light cycle, 60% relative humidity, and with sub-irrigation as needed to facilitate infection and disease development. […] An atomizer was used for applying the solution onto both sides of the leaves until thoroughly wetted. […] At 24 hours after treatment, the plants were moved to a cooler chamber and inoculated by shaking well-colonized, untreated stock plants above the treated plants. This allowed producing a settling cloud of spores and resulting in uniform infection. Inoculated plants were kept near other sporulating stock plants to allow for infection of newly emerging leaves. Efficacy was evaluated in 7 days later by examining leaves for colonization and growth of mildew. Table 5 lists the results of cucumber powdery mildew control at a compound concentration of 10 ppm or lower.

Puccinia triticina = experiment: Foliar protection test for wheat leaf rust control; type: in vivo; details: foliar application to wheat (Triticum aestivum cv. Winterhawk), evaluated 10 days later
[7] = ≥90% growth inhibition, 48 hours, vs 2% DMSO control, read-out: Compound Concentration (ppm) sufficient for ≥90% inhibition of Dm
[8] = ≥90% growth inhibition, 48 hours, vs 2% DMSO control, read-out: Compound Concentration (ppm) sufficient for ≥90% inhibition of Rs
[9] = ≥90% growth inhibition, 48 hours, vs 2% DMSO control, read-out: Compound Concentration (ppm) sufficient for ≥90% inhibition of Fv
[10] = ≥90% growth inhibition, 48 hours, vs 2% DMSO control, read-out: Compound Concentration (ppm) sufficient for ≥90% inhibition of Bc
[11] = ≥90% growth inhibition, 48 hours, vs 2% DMSO control, read-out: Compound Concentration (ppm) sufficient for ≥90% inhibition of Pc
[12] = ≥90% growth inhibition, 48 hours, vs 2% DMSO control, read-out: Compound Concentration (ppm) sufficient for ≥90% inhibition of St
[13] = ≥90% growth inhibition, 48 hours, vs 2% DMSO control, read-out: Compound Concentration (ppm) sufficient for ≥90% inhibition of Cg
[14] = ≥90% growth inhibition, 48 hours, vs 2% DMSO control, read-out: Compound Concentration (ppm) sufficient for ≥90% inhibition of Fm
[15] = ≥90% inhibition, 48 hours vs 2% DMSO control, read-out: Compound Concentration (ppm) sufficient for ≥90% inhibition of growth, Dm
[16] = ≥90% inhibition, 48 hours vs 2% DMSO control, read-out: Compound Concentration (ppm) sufficient for ≥90% inhibition of growth, Rs
[17] = ≥90% inhibition, 48 hours vs 2% DMSO control, read-out: Compound Concentration (ppm) sufficient for ≥90% inhibition of growth, Fv
[18] = ≥90% inhibition, 48 hours vs 2% DMSO control, read-out: Compound Concentration (ppm) sufficient for ≥90% inhibition of growth, Bc
[19] = ≥90% inhibition, 48 hours vs 2% DMSO control, read-out: Compound Concentration (ppm) sufficient for ≥90% inhibition of growth, Pc
[20] = ≥90% inhibition, 48 hours vs 2% DMSO control, read-out: Compound Concentration (ppm) sufficient for ≥90% inhibition of growth, St
[21] = ≥90% inhibition, 48 hours vs 2% DMSO control, read-out: Compound Concentration (ppm) sufficient for ≥90% inhibition of growth, Cg
[22] = ≥90% inhibition, 48 hours vs 2% DMSO control, read-out: Compound Concentration (ppm) sufficient for ≥90% inhibition of growth, Fm

Structure (SMILES)	Septoria Leaf Blotch Control at a compound concentration of 25 ppm or lower [1]	IC90 (Diplodia maydis (Dm); [7])	IC90 (Rhizoctonia solani (Rs); [8])	IC90 [2, 9]	IC90 (Botrtyis cinerea (Bc); [10])	IC90 [3, 11]	IC90 (Septoria tritici (St); [12])	Barley Powdery Mildew Control at a compound concentration of 10 ppm or lower [5]	Asian Soybean Rust Control at a compound concentration of 25 ppm or lower (Phakopsora pachyrhizi)	Wheat Fusarium Head Blight Control at a compound concentration of 25 ppm or lower (Fusarium graminearum)	Cucumber Powdery Mildew Control at a compound concentration of 10 ppm or lower (Sphaerotheca fuliginea)	Wheat Leaf Rust Control at a compound concentration of 10 ppm or lower (Puccinia triticina)	IC90 (Diplodia maydis (Dm); [15])	IC90 (Rhizoctonia solani (Rs); [16])	IC90 [2, 17]	IC90 (Botrtyis cinerea (Bc); [18])	IC90 [3, 19]	IC90 (Septoria tritici (St); [20])	IC90 [4, 21]	IC90 [6, 22]	other results
COc1ccc(F)cc1[C@H](Cn1c(=O)n(C(C)(C)C(=O)NC(C)C)c(=O)c2c(C)c(-n3nccn3)sc21)OCCS(C)(=O)=O [Compound I-287, (R)-2-(1-(2-(5-fluoro-2-methoxyphenyl)-2-(2-(methylsulfonyl)ethoxy)ethyl)-5-methyl-2,4-dioxo-6-(2H-1,2,3-triazol-2-yl)-1,4-dihydrothieno[2,3-d]pyrimidin-3 (2H)-yl)-N-isopropyl-2-methylpropanamide]	AA (≥85% control of wheat septoria leaf blotch)	0.4 µg/mL (≈ 0.615 µM)	0.08 µg/mL (≈ 0.123 µM)	2 µg/mL (≈ 3.07 µM)	2 µg/mL (≈ 3.07 µM)	10 µg/mL (≈ 15.4 µM)	≥ 50 µg/mL	AA (≥85% control of barley powdery mildew)	AA (≥85% control of Asian soybean rust)	C (from 25 to 49% control of wheat fusarium head blight)	AA (≥85% control of cucumber powdery mildew)	AA (≥85% control of wheat leaf rust)									IC90 [4, 13]: 0.4 µg/mL (≈ 0.615 µM); IC90 [6, 14]: 0.4 µg/mL (≈ 0.615 µM)
COc1ccc(F)cc1[C@H](Cn1c(=O)n([C@H](C)C(=O)N(C)C(C)C)c(=O)c2c(C)c(-n3nccn3)sc21)OCCO [Compound I-090, (R)-2-(1-((R)-2-(5-fluoro-2-methoxyphenyl)-2-(2-hydroxyethoxy)ethyl)-5-methyl-2,4-dioxo-6-(2H-1,2,3-triazol-2-yl)-1,4-dihydrothieno[2,3-d]pyrimidin-3 (2H)-yl)-N-isopropyl-N-methylpropanamide]	A (from 70% to 84% control of wheat septoria leaf blotch)							A (from 70% to 84% control of barley powdery mildew)	B (from 50 to 69% control of Asian soybean rust)	D (<25% control of wheat fusarium head blight)	A (from 70% to 84% control of cucumber powdery mildew)	AA (≥85% control of wheat leaf rust)	> 0.08 µg/mL	0.08 µg/mL (≈ 0.136 µM)	> 0.4 µg/mL	2 µg/mL (≈ 3.4 µM)	2 µg/mL (≈ 3.4 µM)	≥ 2 µg/mL	0.08 µg/mL (≈ 0.136 µM)	0.08 µg/mL (≈ 0.136 µM)	
COc1ccccc1[C@H](Cn1c(=O)n(C(C)(C)C(=O)N2CCCC2)c(=O)c2c(C)c(-n3nccn3)sc21)OC1CCOCC1 [Compound I-034, (R)-1-(2-(2-methoxyphenyl)-2-((tetrahydro-2H-pyran-4-yl)oxy)ethyl)-5-methyl-3-(2-methyl-1-oxo-1-(pyrrolidin-1-yl)propan-2-yl)-6-(2H-1,2,3-triazol-2-yl)thieno[2,3-d]pyrimidine-2,4(1H,3H)-dione]	B (from 50 to 69% control of wheat septoria leaf blotch)							AA (≥85% control of barley powdery mildew)	AA (≥85% control of Asian soybean rust)	C (from 25 to 49% control of wheat fusarium head blight)	AA (≥85% control of cucumber powdery mildew)	AA (≥85% control of wheat leaf rust)	≥ 0.4 µg/mL	0.08 µg/mL (≈ 0.128 µM)	0.4 µg/mL (≈ 0.642 µM)	0.4 µg/mL (≈ 0.642 µM)	≥ 10 µg/mL	≥ 2 µg/mL	≥ 0.4 µg/mL	0.08 µg/mL (≈ 0.128 µM)	
COc1ccc(F)cc1[C@H](Cn1c(=O)n(C(C)(C)C(=O)NC(C)C)c(=O)c2c(C)c(-n3nccn3)sc21)OC[C@@H](C)C#N [Compound I-211, 2-(1-((R)-2-((S)-2-cyanopropoxy)-2-(5-fluoro-2-methoxyphenyl)ethyl)-5-methyl-2,4-dioxo-6-(2H-1,2,3-triazol-2-yl)-1,4-dihydrothieno[2,3-d]pyrimidin-3 (2H)-yl)-N-isopropyl-2-methylpropanamide]	AA (≥85% control of wheat septoria leaf blotch)	0.08 µg/mL (≈ 0.131 µM)	0.08 µg/mL (≈ 0.131 µM)	0.4 µg/mL (≈ 0.654 µM)	0.4 µg/mL (≈ 0.654 µM)	> 50 µg/mL	> 50 µg/mL	AA (≥85% control of barley powdery mildew)	AA (≥85% control of Asian soybean rust)	C (from 25 to 49% control of wheat fusarium head blight)	AA (≥85% control of cucumber powdery mildew)	A (from 70% to 84% control of wheat leaf rust)									IC90 [4, 13]: 0.08 µg/mL (≈ 0.131 µM); IC90 [6, 14]: 0.08 µg/mL (≈ 0.131 µM)
COc1ccc(F)cc1[C@H](Cn1c(=O)n([C@@H](C)C(=O)NC(C)C)c(=O)c2c(C)c(-n3nccn3)sc21)OCCO [Compound I-096, (S)-2-(1-((R)-2-(5-fluoro-2-methoxyphenyl)-2-(2-hydroxyethoxy)ethyl)-5-methyl-2,4-dioxo-6-(2H-1,2,3-triazol-2-yl)-1,4-dihydrothieno[2,3-d]pyrimidin-3 (2H)-yl)-N-isopropylpropanamide]	B (from 50 to 69% control of wheat septoria leaf blotch)							B (from 50 to 69% control of barley powdery mildew)	A (from 70% to 84% control of Asian soybean rust)	D (<25% control of wheat fusarium head blight)	AA (≥85% control of cucumber powdery mildew)	A (from 70% to 84% control of wheat leaf rust)	0.4 µg/mL (≈ 0.696 µM)	0.08 µg/mL (≈ 0.139 µM)	2 µg/mL (≈ 3.48 µM)	2 µg/mL (≈ 3.48 µM)	2 µg/mL (≈ 3.48 µM)	≥ 2 µg/mL	0.08 µg/mL (≈ 0.139 µM)	0.08 µg/mL (≈ 0.139 µM)	
